Read-outs that look alike come from different tables or passages of the source. One block for each molecule: values may come before it.
What was measured:
[1] = Isothermic (25° C.) DVS analysis of salts of the compound of Formula I; assay type: physicochemical; conditions: for Mass gain by DVS: 80% relative humidity, 25° C.; for Hygroscopicity by DVS (in words): isothermic 25° C.; for Deliquescence upon removal from the DVS chamber: sample remained a free-flowing powder
From the text: (FIG. 16D). […] Some hysteresis was observed. […] (FIG. 16C). […] (FIG. 16D).
(FIG. 18A). […] (FIG. 18B). […] Some hysteresis was observed. […] An overlay of FTIR spectra of the L- and D-malic acid salts is shown in FIG. 18F. ^1H NMR spectra of the L- and D-malic salts in DMSO-d^6 are shown in FIG. 18G-18H, respectively.

[2] = Solubility test of the D-malic acid salt (room temperature, 60° C., 70° C.); assay type: physicochemical; conditions: for Solids dissolve at 70° C.?: 70° C. for approximately 3.0 hours
[3] = Stability screening of freebase and selected salts of Formula I, 40° C. and 75% RH, weekly HPLC over 4 weeks; conditions: for Absolute % change: 40° C. and 75% RH, T = 0 to 4 weeks; for Stability, HPLC analysis, T = 1 week / Stability, HPLC analysis, T = 2 weeks / Stability, HPLC analysis, T = 3 weeks / Stability, HPLC analysis, T = 4 weeks / Stability, HPLC analysis, T = 0: stored at 40° C. and 75% RH
[4] = GVS hygroscopicity; assay type: physicochemical
From the text: The instruments and methods of analysis used in the polymorph screens described in Examples 5 are described in Example 4, above.

[5] = Solubility test of the HBr salt of the compound of Formula I; assay type: physicochemical; conditions: for Appearance at 25° C. after 2 h / Solids dissolve at 65° C.?: HBr salt; for Appearance at 25° C. after 2 h: 10-20 mg in 1 mL; for Solids dissolve at 65° C.?: 65° C. for 3 hours
[6] = Solubility screening of the compound of Formula IV (freebase) in solvent mixtures; assay type: physicochemical; conditions: approximately 25° C.

SMILES: COc1ccc(CN2CCN(c3ccc(-c4cc(-c5cnn(C)c5)cn5ncc(C#N)c45)cn3)CC2)cn1.O=C(O)C[C@@H](O)C(=O)O [D-malic acid salt]
Mass gain by DVS [1]: approximately 2.8%
Hygroscopicity by DVS (in words) [1]: hygroscopic
Deliquescence upon removal from the DVS chamber [1]: no observable deliquescence
Solids dissolve at 60° C.? ([2]; 60° C. for 3.0 hours, solvent 0.1M HCl, Yes): Yes (>15 mg/mL)
Solids dissolve at 60° C.? ([2]; 60° C. for 3.0 hours, solvent 2-methyl THF): No
Solids dissolve at 60° C.? ([2]; 60° C. for 3.0 hours, solvent ACN): No
Solids dissolve at 60° C.? ([2]; 60° C. for 3.0 hours, solvent Acetone): No
Solids dissolve at 60° C.? ([2]; 60° C. for 3.0 hours, solvent DCE): No
Solids dissolve at 60° C.? ([2]; 60° C. for 3.0 hours, solvent DMSO, Yes): Yes (>40 mg/mL)
Solids dissolve at 60° C.? ([2]; 60° C. for 3.0 hours, solvent EtOAc): No
Solids dissolve at 60° C.? ([2]; 60° C. for 3.0 hours, solvent EtOH): No
Solids dissolve at 60° C.? ([2]; 60° C. for 3.0 hours, solvent IPA): No
Solids dissolve at 60° C.? ([2]; 60° C. for 3.0 hours, solvent MEK): No
Solids dissolve at 60° C.? ([2]; 60° C. for 3.0 hours, solvent MTBE): No
Solids dissolve at 60° C.? ([2]; 60° C. for 3.0 hours, solvent MeOH): No
Solids dissolve at 60° C.? ([2]; 60° C. for 3.0 hours, solvent Toluene): No
Solids dissolve at 60° C.? ([2]; 60° C. for 3.0 hours, solvent iPAc): No
Solids dissolve at 60° C.? ([2]; 60° C. for 3.0 hours, solvent water): No
Solids dissolve at 70° C.? ([2]; solvent 2-methyl THF): No
Solids dissolve at 70° C.? ([2]; solvent ACN): No
Solids dissolve at 70° C.? ([2]; solvent DCE): No
Solids dissolve at 70° C.? ([2]; solvent DMSO, Yes): Yes (>56 mg/mL)
Solids dissolve at 70° C.? ([2]; solvent EtOAc): No
Solids dissolve at 70° C.? ([2]; solvent EtOH): No
Solids dissolve at 70° C.? ([2]; solvent IPA): No
Solids dissolve at 70° C.? ([2]; solvent MEK): No
Solids dissolve at 70° C.? ([2]; solvent MTBE): No
Solids dissolve at 70° C.? ([2]; solvent Toluene): No
Solids dissolve at 70° C.? ([2]; solvent iPAc): No
Solids dissolve at 70° C.? ([2]; solvent water): No
Solids dissolve at 60° C.? ([2]; solvent THF, cell says At 65° C.): ~10 mg/mL
Absolute % change [3]: 0.6%
Stability, HPLC analysis, T = 1 week [3]: 97.6%
Stability, HPLC analysis, T = 2 weeks [3]: 97.4%
Stability, HPLC analysis, T = 3 weeks [3]: 97.2%
Stability, HPLC analysis, T = 4 weeks [3]: 97.1%
Stability, HPLC analysis, T = 0 [3]: 97.7%

SMILES: COc1ccc(CN2C3CC2CN(c2ccc(-c4cc(OCC(C)(C)O)cn5ncc(C#N)c45)cn2)C3)cn1 [Form 1]
Hygroscopicity by GVS (in words) [4]: moderately hygroscopic
Weight increase by GVS ([4]; at 90% RH): 2.6%

SMILES: COc1ccc(CN2CCN(c3ccc(-c4cc(-c5cnn(C)c5)cn5ncc(C#N)c45)cn3)CC2)cn1 [Freebase I]
Absolute % change [3]: 0.4%
Stability, HPLC analysis, T = 1 week [3]: 97.3%
Stability, HPLC analysis, T = 2 weeks [3]: 97.1%
Stability, HPLC analysis, T = 3 weeks [3]: 97.1%
Stability, HPLC analysis, T = 4 weeks [3]: 96.9%
Stability, HPLC analysis, T = 0 [3]: 97.3%

SMILES: Br.COc1ccc(CN2CCN(c3ccc(-c4cc(-c5cnn(C)c5)cn5ncc(C#N)c45)cn3)CC2)cn1 [HBr salt]
solubility ([5]; DMSO): 1.95 mg/mL
Appearance at 25° C. after 2 h ([5]; solvent 2-methyl THF): Solids
Appearance at 25° C. after 2 h ([5]; solvent ACN): Solids
Appearance at 25° C. after 2 h ([5]; solvent Acetone): Solids
Appearance at 25° C. after 2 h ([5]; solvent DCE): Solids
Appearance at 25° C. after 2 h ([5]; solvent DCM): Solids
Appearance at 25° C. after 2 h ([5]; solvent DMSO): Solids
Appearance at 25° C. after 2 h ([5]; solvent EtOAc): Solids
Appearance at 25° C. after 2 h ([5]; solvent EtOH): Solids
Appearance at 25° C. after 2 h ([5]; solvent IPA): Solids
Appearance at 25° C. after 2 h ([5]; solvent MEK): Solids
Appearance at 25° C. after 2 h ([5]; solvent MTBE): Solids
Appearance at 25° C. after 2 h ([5]; solvent MeOH): Solids
Appearance at 25° C. after 2 h ([5]; solvent THF): Solids
Appearance at 25° C. after 2 h ([5]; solvent iPAc): Solids
Appearance at 25° C. after 2 h ([5]; solvent water): Solids
Solids dissolve at 65° C.? ([5]; solvent 2-methyl THF): No
Solids dissolve at 65° C.? ([5]; solvent ACN): No
Solids dissolve at 65° C.? ([5]; solvent Acetone): No
Solids dissolve at 65° C.? ([5]; solvent DCE): No
Solids dissolve at 65° C.? ([5]; solvent DCM): No
Solids dissolve at 65° C.? ([5]; solvent DMSO): No
Solids dissolve at 65° C.? ([5]; solvent EtOAc): No
Solids dissolve at 65° C.? ([5]; solvent EtOH): No
Solids dissolve at 65° C.? ([5]; solvent IPA): No
Solids dissolve at 65° C.? ([5]; solvent MEK): No
Solids dissolve at 65° C.? ([5]; solvent MTBE): No
Solids dissolve at 65° C.? ([5]; solvent MeOH): No
Solids dissolve at 65° C.? ([5]; solvent THF): No
Solids dissolve at 65° C.? ([5]; solvent iPAc): No
Solids dissolve at 65° C.? ([5]; solvent water): No
Solubility (in words) ([5]; solvent systems examined): low solubility
Solids upon heating to 65° C. ([5]; solvent systems examined, 65° C.): did not dissolve

SMILES: COc1ccc(CN2CCN(c3ccc(-c4cc(-c5cnn(C)c5)cn5ncc(C#N)c45)cn3)CC2)cn1.Cl [HCl salt]
Mass gain by DVS [1]: approximately 5%
Hygroscopicity by DVS (in words) [1]: hygroscopic
Deliquescence upon removal from the DVS chamber [1]: no observable deliquescence
Absolute % change [3]: 0.0%
Stability, HPLC analysis, T = 1 week [3]: 99.3%
Stability, HPLC analysis, T = 2 weeks [3]: 99.3%
Stability, HPLC analysis, T = 3 weeks [3]: 99.3%
Stability, HPLC analysis, T = 4 weeks [3]: 99.3%
Stability, HPLC analysis, T = 0 [3]: 99.3%

solubility ([6]; Water): 0.007 mg/mL
solubility ([6]; aqueous with cosolvent or surfactant or cyclodextrin, Acetone:water (1:1)): 45.8 mg/mL
solubility ([6]; aqueous with cosolvent or surfactant or cyclodextrin, EtOH:water (1:1)): 51 mg/mL
solubility ([6]; organic solvent or mixture, ACN): 21.2 mg/mL
solubility ([6]; organic solvent or mixture, Acetone): 42.9 mg/mL
solubility ([6]; organic solvent or mixture, Acetone:heptane (1:1)): 6.1 mg/mL
solubility ([6]; organic solvent or mixture, Butanol): 16.6 mg/mL
solubility ([6]; organic solvent or mixture, Chloroform): > 59 mg/mL
solubility ([6]; organic solvent or mixture, Chloroform:heptane (1:1)): 11.7 mg/mL
solubility ([6]; organic solvent or mixture, DCM): > 70 mg/mL
solubility ([6]; organic solvent or mixture, EtOH:water (90:10)): 55 mg/mL
solubility ([6]; organic solvent or mixture, Ethanol): 5.2 mg/mL
solubility ([6]; organic solvent or mixture, Ethyl acetate): 21 mg/mL
solubility ([6]; organic solvent or mixture, IPA): 7 mg/mL
solubility ([6]; organic solvent or mixture, MEK): 30.7 mg/mL
solubility ([6]; organic solvent or mixture, MTBE): 5.5 mg/mL
solubility ([6]; organic solvent or mixture, Methanol): > 74 mg/mL
solubility ([6]; organic solvent or mixture, THF): > 37 mg/mL
solubility ([6]; organic solvent or mixture, THF:heptane (30:70)): 0.6 mg/mL
solubility ([6]; organic solvent or mixture, p-dioxane): > 62 mg/mL
SMILES: CC(C)(O)COc1cc(-c2ccc(N3CCC(O)(Cc4ccccn4)CC3)nc2)c2c(C#N)cnn2c1 [compound of Formula IV, 6-(2-hydroxy-2-methylpropoxy)-4-(6-(4-hydroxy-4-(pyridin-2-ylmethyl)piperidin-1-yl)pyridin-3-yl)pyrazolo[1,5-a]pyridine-3-carbonitrile]

SMILES: COc1ccc(CN2C3CC2CN(c2ccc(-c4cc(OCC(C)(C)O)cn5ncc(C#N)c45)cn2)C3)cn1.O=P(O)(O)O [phosphate salt]
Hygroscopicity by GVS (in words) [4]: highly hygroscopic
Weight increase by GVS [4]: approximately 14%
Form and crystallinity by XRPD after 7-day stability tests (ambient temperature and light, 40° C./75% RH, 80° C.): no change in form or crystallinity
Purity after 7-day stability storage (stored 7 days at 40° C./75% RH): 97.44%
Purity after 7-day stability storage (stored 7 days at 80° C.): 64.96%
Purity after 7-day stability storage (stored 7 days at RT (ambient temperature and light)): 98.03%
